The values that follow come from publication PMC5412445, “ZeGlobalTox: An Innovative Approach to Address Organ Drug Toxicity Using Zebrafish” (International Journal of Molecular Sciences, 2017).

Where two headings read alike, the source gives them in different places. Where only a bound is given, the exact number is not on record here.

What is called LC50 is the concentration that kills 50% of the test population. Lower therefore signals greater toxicity.

In one data set the test system is humans. To be noted: cited from earlier work.
Another data set has as its system zebrafish larvae heart. Briefly: ZeGlobalTox cardiotoxicity evaluation (heart video, ZeCardio software). To be noted: 100 hpf, 4 h after drug incubation at NOEC (haloperidol 10 µM). The data set is classed as in vivo, zebrafish (Danio rerio). The protocol: Four cardiac parameters were evaluated to assess whether a compound was cardiotoxic: heart rate (beats per minute, BPM), QTc prolongation, ejection fraction (EJF), and cardiac arrest. […] 1% DMSO was used as the negative control.
Cardiotoxicity evaluation was performed from 96 hpf, when the zebrafish heartbeat is already stabilised, so the analysis might not be altered by unstable beating. Zebrafish hearts were video-recorded at 4 h after drug incubation (100 hpf) and analysed using the ZeCardio® β software (Figure 3A).
After 4 h of drug incubation (100 hpf), zebrafish larvae were anesthetized by immersion in […] tricaine methanesulfonate (A4050, Sigma-Aldrich, Saint Louis, MO, USA)/E3 solution. […] The 1% DMSO treated embryos were used as negative cardiotoxic controls. Embryos were positioned in an agarose based mold to allow their appropriate orientation under the fluorescence stereo microscope (Olympus MVX10). Individual fluorescent hearts were recorded during 60 s each (Figure 6A). Videos were acquired with a high-speed recording camera (Hamamatsu C11440 ORCA-flash 2.8) and analysed with the ZeCardio® β software to extract different cardiac parameters—heart rate, cardiac arrest, QTc prolongation, and Ejection Fraction (EJF) (Figure 6B).
ZeCardio® β software, developed by ZeClinics and currently in β status, provides a graphical user interface (GUI) that facilitates the semi-automatic analysis of living heart videos. Interactive analysis of the different parameters functions as follows: The user draws a line along the heart axis, from ventricle to atrium, to initiate the calculation. […] All lines can be subjected to modification of their angles and lengths.
Heart beat frequency for each chamber is detected and frequencies are presented in the GUI as a mean. A plot distribution is used for assessing beat stability over time (Figure 6F). In the same fashion, chamber specific cardiac arrest is measured as the longest beating pause (Figure 6H). No beating chambers and/or incorrect bpm can be manually flagged when detected.
For calculation of the QTc interval (linearly corrected QT interval), the Framingham formula (QTc = QT + 0.154 (1 − RR)) was adjusted for zebrafish as QTc = QT + 0.154 (2.66 − RR). RR = 6.6 ms/measured bpm is applied (Figure 6G). Finally, the Ejection Fraction, calculated as the maximal dilatation (the diastolic diameter, DD) versus the maximal contraction (systolic diameter, SD) is measured in % as EF% = (DD − SD)/DD*100 (Figure 6G). Computed values for the described parameters were exported in .csv format (Figure 6H).

Data set [1] concerns wild type zebrafish embryos. Briefly: in vivo. The data set is classed as in vivo. To be noted: embryos incubated 3 to 96 hpf; 5 logarithmic concentrations 0.1 µM to 1 mM; 1% DMSO. The text has this:
(§1) Several issues were considered when planning the experimental protocol. The main concern was that drug-induced mortality and/or developmental toxicity (teratogenicity) could mask possible organ-toxicities appearing later in development. […] This preliminary assay allowed for the identification of non-mortal/non-teratogenic concentrations—no observed effect concentration (NOEC)—to use in the following assays. The hypothesis is that NOEC could affect organ physiology (organ toxicity), while uncoupled from putative developmental toxicity side-effects affecting organ development or function. Another consideration was to start drug incubations at 96 hours post fertilization (hpf), when the analysed organs are close to or already developed (Figure 1B). The overall aim is to understand the drug impact on organ physiology and function rather than early embryogenesis. The third consideration was to organize the sequential organ evaluation during the experimental and drug incubation time.
(§2) 1% DMSO, which is the constant solvent concentration in all conditions, was used as the negative control.
(§3) Thus, 20 wild type (wt) zebrafish embryos per condition were incubated with tested compounds from 3 to 96 hpf. The test was performed in 5 logarithmic concentrations per drug (from 0.1 µM to 1 mM). Each larva was analysed for mortality, body deformity, edema, tail detachment, pigmentation, heart activity, heart edema, and motor activity. […] DMSO 1% was used as the negative control in all experiments.

Another data set is described as follows: in vivo. To be noted: zebrafish, in vivo; mortality; embryos incubated 3 to 96 hpf; 5 logarithmic concentrations 0.1 µM to 1 mM; 1% DMSO. It counts as in vivo.
Source text: as §1, §2, §3

A further data set has as its system zebrafish larvae liver. The data set is described as follows: ZeGlobalTox hepatotoxicity: Oil Red O staining (steatosis and yolk lipid accumulation). To be noted: 132 hpf; for Percentage of larvae presenting steatosis: 36 h drug incubation at NOEC (EtOH 2%, MPTP 100 µM), DMSO 24.44%.
Where [2] appears, read: known toxicity in humans, ref TOXNET (HSDB), Side effects (EMBL), drugs.com, [22],[30],[31],[34],[35].
Setting [3] is: known toxicity in humans, ref TOXNET (HSDB), Side effects (EMBL), drugs.com, ema.europa, [19],[20],[21].
The mark [4] stands for this setting: known toxicity in humans, ref TOXNET (HSDB), Side effects (EMBL), drugs.com, ema.europa, [24],[26],[27],[32],[33].

Experimental for zebrafish larvae liver: In order to assess drugs producing steatosis and yolk lipid accumulation, and subsequent to the RFP filtered images being acquired, zebrafish larvae were stained with Oil Red O. Larvae and were sorted into steatosis positive or negative, yolk lipid accumulation, or both (see materials and methods).
For the ZeGlobalTox assay, fertilized Tg(cmlc2:GFP; fabp10:RFP; ela31:EGFP) zebrafish embryos were collected in E3 medium (5 mM NaCl, 0.17 mM KCl, 0.33 mM CaCl2, 0.33 mM, MgSO4) in Petri dishes. At 3, 24, and 48 hpf, dishes were observed and all not fertilized, abnormal, or coagulated eggs were discarded. At 96 hpf, 20 larvae per condition were incubated with the NOECs from the different drugs and allowed to develop until 132 hpf at 28.5 °C.
After 36 h of drug incubation (132 hpf), embryos are fixed in 4% paraformaldehyde (158127-500G, Sigma-Aldrich, Saint Louis, MO, USA) for 2–4 h at room temperature (RT) and then are 3× washed with PBS.
In order to detect the presence of steatosis and yolk lipid retention, zebrafish larvae were stained with Oil Red O (O0625-25G, Sigma-Aldrich, Saint Louis, MO, USA) as described in [77]. Briefly, the skin pigment from fixed larvae is removed by incubating with bleaching solution (for 10 mL: 6 mL H2O, 0.25 mL 20× SSC, 0.5 mL formamide, 3.3 mL H2O2) during 20 min at RT. Then, the larvae are 5× washed with PBS. Bleached embryos are first submerged in 85% Propylene glycol (PG) (134368-1L, Sigma-Aldrich, Saint Louis, MO, USA) for 10 min and then in 100% PG for another 10 min before staining them with Oil Red O 0.5% in 100% PG (overnight, at RT and with gentle rocking). Oil Red O stained embryos are washed in 100% PG for 30 min, 50 min in 85% PG, and 40 min in 85% PG with an equal volume of PBS. Finally, embryos are washed 1× with PBS before adding 80% glycerol (G7757-500ML, Sigma-Aldrich, Saint Louis, MO, USA). Bright field images are taken to detect both steatosis and yolk lipid accumulation. […] Yolk lipid retention is considered positive when a red strong signal is observed in the yolk area (Figure 5F).
DMSO 1% treated larvae were used as the negative control group.

In the case of `O=C(CCCN1CCC(O)(c2ccc(Cl)cc2)CC1)c1ccc(F)cc1` [Haloperidol], in the data set with humans (setting [2]), the “Neurotoxicity (toxicity in humans)” value is reported as “Toxic ^1,2,3”. The “Cardiotoxicity (toxicity in humans)” value in the data set on humans (setting [3]) was “Toxic ^1,2,3 [19, 20, 21]”. Besides, the “Hepatotoxicity (toxicity in humans)” value in the data set with humans (setting [4]) is “Safe”. Besides, in the data set on zebrafish larvae heart, the “Heart rate (beats per minute) compared to DMSO-only” value is reported as “decreased the heart rate” and the “QTc interval compared to DMSO-only” value is recorded as “QTc interval prolongation”.

Take `CCO` [Ethanol]: the “Neurotoxicity (toxicity in humans)” value with humans (setting [2]) is given as “Toxic ^1”. In addition, the “Cardiotoxicity (toxicity in humans)” value with humans (setting [3]) is given as “Toxic ^1”. Moreover, in the data set with humans (setting [4]), the “Hepatotoxicity (toxicity in humans)” value is “Toxic [26, 27]”.

For the compound `N[C@@H](CS)C(=O)O` [L-Cysteine, L-cysteine], in data set [1], the “96 hpf NOEC” value is 1000.00 µM.

As for `CCOC(=O)Nc1ccc(NCc2ccc(F)cc2)nc1N` [Flupirtine, flupirtine], in data set [1], the “96 hpf LOEC” value came to 100.00 µM and the “96 hpf NOEC” value is reported as 10.00 µM. Also, the median lethal concentration (LC50) in “in vivo” turned out to be 136 µM. The “Neurotoxicity (toxicity in humans)” value in the data set on humans (setting [2]) is “Safe”. In addition, the “Cardiotoxicity (toxicity in humans)” value in the data set on humans (setting [3]) is on record as “Safe”. Moreover, in the data set on humans (setting [4]), the “Hepatotoxicity (toxicity in humans)” value is “Toxic ^4”.

As for `NC(=O)CC[C@H](N)C(=O)O` [L-Glutamine, L-glutamine], the “Neurotoxicity (toxicity in humans)” value with humans (setting [2]) is on record as “Safe”. Further, the “Cardiotoxicity (toxicity in humans)” value in the data set with humans (setting [3]) is listed as “Safe”. Also, in the data set on humans (setting [4]), the “Hepatotoxicity (toxicity in humans)” value was “Safe”.

Turning to `COc1cc(N)c(Cl)cc1C(=O)NC1CCN(CCCOc2ccc(F)cc2)CC1OC` (stereo not shown) [Cisapride, cisapride], the 50% lethal concentration (LC50) in “in vivo” was > 1000 µM. In addition, the “Neurotoxicity (toxicity in humans)” value in the data set with humans (setting [2]) is listed as “Safe”. Moreover, the “Cardiotoxicity (toxicity in humans)” value in the data set on humans (setting [3]) is “Toxic ^1,3”. In the data set on humans (setting [4]), the “Hepatotoxicity (toxicity in humans)” value was “Safe”. For the same compound, in the data set with zebrafish larvae heart, the “Heart rate (beats per minute) compared to DMSO-only” value is recorded as “decreased the heart rate” and the “Longest cardiac arrest compared to DMSO-only” value is “Longer cardiac arrest”.

On to `NNC(=O)c1ccncc1` [Isoniazid, isoniazid], for which the “Percentage of larvae presenting steatosis” value in the data set with zebrafish larvae liver was 60%. Further, the “96 hpf NOEC” value in data set [1] turned out to be 1000.00 µM. In addition, the “Neurotoxicity (toxicity in humans)” value in the data set with humans (setting [2]) is given as “Toxic ^1,2,3”. The “Cardiotoxicity (toxicity in humans)” value with humans (setting [3]) is listed as “Safe”. The “Hepatotoxicity (toxicity in humans)” value with humans (setting [4]) was “Toxic ^1,2,3”.

In the case of `Cc1ccc(C(=O)Nc2ccc(S(=O)(=O)O)c3cc(S(=O)(=O)O)cc(S(=O)(=O)O)c23)cc1NC(=O)c1cccc(NC(=O)Nc2cccc(C(=O)Nc3cc(C(=O)Nc4ccc(S(=O)(=O)O)c5cc(S(=O)(=O)O)cc(S(=O)(=O)O)c45)ccc3C)c2)c1` [Suramin, suramin], the “96 hpf LOEC” value in data set [1] came out at 1000 µM. Further, in the data set “in vivo”, the 50% lethal concentration (LC50) is 197 µM. The “Neurotoxicity (toxicity in humans)” value in the data set on humans (setting [2]) is “Toxic [34, 35]”. Besides, the “Cardiotoxicity (toxicity in humans)” value in the data set with humans (setting [3]) is “Safe”. For the same compound, in the data set on humans (setting [4]), the “Hepatotoxicity (toxicity in humans)” value is “Safe”.

`[Cl-].[Na+]` [NaCl, sodium chloride]: the “96 hpf NOEC” value in data set [1] was 1000.00 µM. Also, in the data set on humans (setting [2]), the “Neurotoxicity (toxicity in humans)” value is “Safe”. In addition, the “Cardiotoxicity (toxicity in humans)” value with humans (setting [3]) is on record as “Safe”. Further, the “Hepatotoxicity (toxicity in humans)” value with humans (setting [4]) is recorded as “Safe”.

In the case of `C[C@]12CC[C@H](O)C[C@H]1CC[C@@H]1[C@@H]2C[C@@H](O)[C@]2(C)[C@@H](C3=CC(=O)OC3)CC[C@]12O` [Digoxigenin, digoxigenin], in the data set with zebrafish larvae liver, the “Percentage of larvae presenting steatosis” value came to 55%. Moreover, in data set [1], the “96 hpf LOEC” value amounted to 1000.00 µM and the “96 hpf NOEC” value is recorded as 100.00 µM. Moreover, the “Cardiotoxicity (toxicity in humans)” value in the data set with humans (setting [3]) is “Toxic ^1”.

Consider `CC(C)(C)NC(=O)[C@H]1CC[C@H]2[C@@H]3CC[C@H]4NC(=O)C=C[C@]4(C)[C@H]3CC[C@]12C` [Finasteride, finasteride], for which, in the data set with zebrafish larvae liver, the “Percentage of larvae presenting steatosis” value was 65%. In data set [1], the “96 hpf LOEC” value was found to be 100.00 µM. The LC50 in “in vivo” was 31.6 µM. Moreover, the “Neurotoxicity (toxicity in humans)” value with humans (setting [2]) is “Safe”. Besides, in the data set with humans (setting [3]), the “Cardiotoxicity (toxicity in humans)” value is on record as “Safe”. Further, the “Hepatotoxicity (toxicity in humans)” value in the data set with humans (setting [4]) is on record as “Safe”.

In the case of `CN(CCOc1ccc(NS(C)(=O)=O)cc1)CCc1ccc(NS(C)(=O)=O)cc1` [Dofetilide, dofetilide], the “96 hpf LOEC” value in data set [1] was found to be 100.00 µM. Besides, the “Neurotoxicity (toxicity in humans)” value in the data set with humans (setting [2]) is “Safe”. Moreover, in the data set on humans (setting [3]), the “Cardiotoxicity (toxicity in humans)” value is given as “Toxic ^1,2,3”. For the same compound, the “Hepatotoxicity (toxicity in humans)” value in the data set with humans (setting [4]) is recorded as “Safe”. In the data set on zebrafish larvae heart, the “Heart rate (beats per minute) compared to DMSO-only” value is “decreased the heart rate” and the “Longest cardiac arrest compared to DMSO-only” value was “Longer cardiac arrest”.

On to `O=C(O)c1cn(C2CC2)c2cc(N3CCNCC3)c(F)cc2c1=O` [Ciprofloxacin, ciprofloxacin], for which, in the data set with zebrafish larvae heart, the “Heart rate (beats per minute) compared to DMSO-only” value is reported as “increased heart rates” and the “Longest cardiac arrest compared to DMSO-only” value was “no differences”.

On to `CC(=O)O[C@H]1C[C@@]2(C)[C@@H](C[C@@H](O)[C@H]3[C@@]4(C)CC[C@@H](O)[C@@H](C)[C@@H]4CC[C@@]32C)/C1=C(\CCC=C(C)C)C(=O)O` [Fusidic Acid, fusidic acid], for which, in data set [1], the “96 hpf LOEC” value turned out to be 100.00 µM. In “in vivo”, this compound returned an LC50 of 124 µM. Moreover, the “Neurotoxicity (toxicity in humans)” value in the data set on humans (setting [2]) is reported as “Safe”. For the same compound, the “Cardiotoxicity (toxicity in humans)” value in the data set with humans (setting [3]) is “Safe”. Also, the “Hepatotoxicity (toxicity in humans)” value in the data set with humans (setting [4]) is “Toxic [32, 33]”.

In the case of `OC[C@H]1OC(O)[C@H](O)[C@@H](O)[C@@H]1O` (stereo partly drawn) [D-(+)-glucose], the “96 hpf NOEC” value in data set [1] was found to be 1000.00 µM. In the data set on humans (in vivo), the “Cardiotoxicity (toxicity in humans)” value is recorded as “Safe”, the “Hepatotoxicity (toxicity in humans)” value is given as “Safe” and the “Neurotoxicity (toxicity in humans)” value was “Safe”.

For the compound `C[C@](N)(Cc1ccc(O)c(O)c1)C(=O)O` [Methyldopa, methyldopa], the “Percentage of larvae presenting yolk lipid retention” value in the data set with zebrafish larvae liver (36 h drug incubation at NOEC (paracetamol 2600 µM), DMSO 22.22%) is reported as 50%. In addition, the “96 hpf NOEC” value in data set [1] was 1000.00 µM. Besides, the “Neurotoxicity (toxicity in humans)” value in the data set with humans (setting [2]) is on record as “Toxic ^1,3”. Also, the “Cardiotoxicity (toxicity in humans)” value in the data set with humans (setting [3]) was “Safe”. Also, the “Hepatotoxicity (toxicity in humans)” value with humans (setting [4]) is “Toxic ^1,2,3”.

For `CCN(CC)c1ccc(C=O)cc1` [DEAB, 4-diethylaminobenzaldehyde], in data set [1], the “96 hpf LOEC” value stood at 10.00 µM and the “96 hpf NOEC” value is reported as 1.00 µM. The compound also registered a 50% lethal concentration (LC50) in “in vivo” of 186 µM.
